≈ marks a conversion by molar mass, not a printed value. Where two headings read alike, the source gives them in different places.
Columns and labels:
[1] = tested on: Bacillus cereus (clinical isolate); assay: Antibacterial microdilution (MIC/MBC); format: cell-based; details: B.c. (B. cereus)
Experimental: (§1) The synthesized compounds (Table 1) were evaluated for their antibacterial activity against a panel of eight species using a microdilution method with ampicillin and streptomycin as reference drugs. […] The order of activity can be presented as: 8 > 11 > 2 > 1 > 12 > 3 > 17 > 7 > 5 > 13 > 14 > 16 > 9 > 4 = 6 > 15 > 10. […] Cloacae. […] The most sensitive bacteria appeared to be En. cloacae, while E. coli was the most resistant one, followed by M. flavus.
(§2) The following Gram-negative bacteria: Escherichia coli (ATCC 35210), Enterobacter cloacae (clinical isolate), Salmonella typhimurium (ATCC 13311), as well as Gram-positive bacteria: Listeria monocytogenes (NCTC 7973), Bacillus cereus (clinical isolate), and Staphylococcus aureus (ATCC 6538) were used. The organisms were obtained from the Mycological Laboratory, Department of Plant Physiology, Institute for Biological Research “Siniša Stankovic”, Belgrade, Serbia. The minimum inhibitory (MIC) and minimum bactericidal (MBC) concentrations were determined by the modified microdilution method, as previously reported.

[2] = tested on: Enterobacter cloacae (clinical isolate); assay: Antibacterial microdilution (MIC/MBC); format: cell-based; details: Enterobacter cloacae, En.cl (En. cloacae); for MIC: read-out: MIC
Experimental: as §1, §2

[3] = tested on: Escherichia coli (ATCC 35210); assay: Antibacterial microdilution (MIC/MBC); format: cell-based; details: Escherichia coli, ATCC35210, E. coli; for MIC: read-out: MIC
Experimental: as §1, §2

[4] = tested on: Listeria monocytogenes (NCTC 7973); assay: Antibacterial microdilution (MIC/MBC); format: cell-based; details: Listeria monocytogenes, NCTC7973, L.m. (L. monocytogenes); for MIC: read-out: MIC
Experimental: as §1, §2

M. flavus = assay: Antibacterial microdilution (MIC/MBC); format: cell-based; details: Micrococcus flavus; M.f. (M. flavus)
Experimental: as §1, §2

P. aeruginosa = assay: Antibacterial microdilution (MIC/MBC); format: cell-based; details: Pseudomonas aeruginosa, P.a. (P. aeruginosa); for MIC: read-out: MIC
Experimental: as §1, §2

[5] = tested on: Salmonella typhimurium (ATCC 13311); assay: Antibacterial microdilution (MIC/MBC); format: cell-based; details: S.t. (S. typhimurium)
Experimental: as §1, §2

[6] = tested on: Staphylococcus aureus (ATCC 6538); assay: Antibacterial microdilution (MIC/MBC); format: cell-based; details: S.a. (S. aureus)
Experimental: as §1, §2

A. ochraceus = assay: Antifungal bioassay (MIC/MFC); format: cell-based; details: Aspergillus ochraceus, A.o. (A. ochraceus); for MIC: read-out: MIC
Experimental: (§3) For the antifungal bioassays, six fungi were used: […] The organisms were obtained from the Mycological Laboratory, Department of Plant Physiology, Institute for Biological Research “Siniša Stankovic”, Belgrade, Serbia. All experiments were performed in duplicate.

[7] = tested on: Aspergillus fumigatus (ATCC 1022); assay: Antifungal bioassay (MIC/MFC); format: cell-based; details: ATCC1022, A.f. (A. fumigatus)
Experimental: as §3

[8] = tested on: Aspergillus niger (ATCC 6275); assay: Antifungal bioassay (MIC/MFC); format: cell-based; details: ATCC6275, A.n. (A. niger)
Experimental: as §3

[9] = tested on: Aspergillus versicolor (ATCC 11730); assay: Antifungal bioassay (MIC/MFC); format: cell-based; details: ATCC11730, A.v. (A. versicolor)
Experimental: as §3

P. ochrochloron = assay: Antifungal bioassay (MIC/MFC); format: cell-based; details: Penicillium ochrochloron; for MFC: P.o. (P. ochrochloron); for MIC: P.o. (P. ochrochloron; text: P. ochramensis), read-out: MIC
Experimental: as §3

[10] = tested on: Penicillium funiculosum (ATCC 36839); assay: Antifungal bioassay (MIC/MFC); format: cell-based; details: Talaromyces funiculosus, ATCC36839; P.f. (P. funiculosum)
Experimental: as §3

[11] = tested on: Penicillium verrucosum var. cyclopium (food isolate); assay: Antifungal bioassay (MIC/MFC); format: cell-based
Experimental: For the antifungal bioassays, six fungi were used: Aspergillus niger (ATCC 6275), Aspergillus fumigatus (ATCC 1022), Aspergillus versicolor (ATCC 11730), Penicillium funiculosum (ATCC 36839), Trichoderma viride (IAM 5061), and Penicillium verrucosum var. cyclopium (food isolate). The organisms were obtained from the Mycological Laboratory, Department of Plant Physiology, Institute for Biological Research “Siniša Stankovic”, Belgrade, Serbia. All experiments were performed in duplicate.

[12] = tested on: Trichoderma viride (IAM 5061); assay: Antifungal bioassay (MIC/MFC); format: cell-based; details: T.v. (T. viride)
Experimental: as §3

[13] = Salmonella enterica, read-out: MIC
[14] = Staphylococcus aureus, ATCC6538
[15] = Staphylococcus aureus, ATCC6538, read-out: MIC

| Structure (SMILES) | MBC ([1]; Bacillus cereus) | MIC ([1]; Bacillus cereus, read-out: MIC) | MBC [2] | MIC [2] | MBC [3] | MIC [3] | MBC [4] | MIC [4] | MBC (M. flavus) | MIC (M. flavus) | MBC (P. aeruginosa) | MIC (P. aeruginosa) | MBC ([5]; Salmonella enterica) | MIC [5, 13] | MBC [6, 14] | MIC [6, 15] | MFC (A. ochraceus) | MIC (A. ochraceus) | MFC [7] | MIC [7] | also measured |
| --- | --- | --- | --- | --- | --- | --- | --- | --- | --- | --- | --- | --- | --- | --- | --- | --- | --- | --- | --- | --- | --- |
| COC(=O)c1[nH]c2ccc(F)cc2c1/C=C1\SC(=S)N(CCC(=O)O)C1=O [Compound 14, (Z)-3-(5-((5-fluoro-2-(methoxycarbonyl)-1H-indol-3-yl)methylene)-4-oxo-2-thioxothiazolidin-3-yl)propanoic acid] | 60 ± 6 µg/mL (≈ 147 µM) | 30 ± 10 µg/mL (≈ 73.5 µM) | 30 ± 10 µg/mL (≈ 73.5 µM) | 15 ± 9 µg/mL (≈ 36.7 µM) | 60 ± 6 µg/mL (≈ 147 µM) | 45 ± 3 µg/mL (≈ 110 µM) | 60 ± 6 µg/mL (≈ 147 µM) | 45 ± 3 µg/mL (≈ 110 µM) | 60 ± 6 µg/mL (≈ 147 µM) | 45 ± 3 µg/mL (≈ 110 µM) | 30 ± 10 µg/mL (≈ 73.5 µM) | 15 ± 9 µg/mL (≈ 36.7 µM) | 60 ± 6 µg/mL (≈ 147 µM) | 45 ± 3 µg/mL (≈ 110 µM) | 60 ± 6 µg/mL (≈ 147 µM) | 30 ± 10 µg/mL (≈ 73.5 µM) | 30 ± 10 µg/mL (≈ 73.5 µM) | 15 ± 3 µg/mL (≈ 36.7 µM) | 120 ± 40 µg/mL (≈ 294 µM) | 60 ± 6 µg/mL (≈ 147 µM) | MFC [8]: 30 ± 10 µg/mL (≈ 73.5 µM); MIC [8]: 15 ± 3 µg/mL (≈ 36.7 µM); MFC [9]: 30 ± 10 µg/mL (≈ 73.5 µM); MIC [9]: 15 ± 3 µg/mL (≈ 36.7 µM); MFC (P. ochrochloron): 30 ± 10 µg/mL (≈ 73.5 µM); MIC (P. ochrochloron): 15 ± 3 µg/mL (≈ 36.7 µM); MFC [10]: 30 ± 10 µg/mL (≈ 73.5 µM); MIC [10]: 15 ± 3 µg/mL (≈ 36.7 µM); MFC [11]: 30 ± 10 µg/mL (≈ 73.5 µM); MIC [11]: 15 ± 3 µg/mL (≈ 36.7 µM); melting point: 275 to 276 °C |
| COC(=O)c1[nH]c2ccccc2c1/C=C1\SC(=S)N(CCC(=O)O)C1=O [Compound 17, (Z)-3-(5-((2-(methoxycarbonyl)-1H-indol-3-yl)methylene)-4-oxo-2-thioxothiazolidin-3-yl)propanoic acid] | 60 ± 6 µg/mL (≈ 154 µM) | 30 ± 10 µg/mL (≈ 76.8 µM) | 15 ± 9 µg/mL (≈ 38.4 µM) | 8 ± 0.6 µg/mL (≈ 20.5 µM) | 60 ± 6 µg/mL (≈ 154 µM) | 45 ± 3 µg/mL (≈ 115 µM) | 60 ± 6 µg/mL (≈ 154 µM) | 30 ± 10 µg/mL (≈ 76.8 µM) | 60 ± 6 µg/mL (≈ 154 µM) | 30 ± 10 µg/mL (≈ 76.8 µM) | 15 ± 9 µg/mL (≈ 38.4 µM) | 8 µg/mL (≈ 20.5 µM) | 60 ± 6 µg/mL (≈ 154 µM) | 30 ± 10 µg/mL (≈ 76.8 µM) | 15 µg/mL (≈ 38.4 µM) | 8 µg/mL (≈ 20.5 µM) | 15 ± 3 µg/mL (≈ 38.4 µM) | 8 ± 0.6 µg/mL (≈ 20.5 µM) | 120 ± 40 µg/mL (≈ 307 µM) | 60 ± 6 µg/mL (≈ 154 µM) | MIC [6]: 8 ± 0.6 µg/mL (≈ 20.5 µM); MFC [8]: 15 ± 3 µg/mL (≈ 38.4 µM); MIC [8]: 22 ± 5 µg/mL (≈ 56.3 µM); MFC [9]: 30 ± 10 µg/mL (≈ 76.8 µM); MIC [9]: 15 ± 3 µg/mL (≈ 38.4 µM); MFC (P. ochrochloron): 30 ± 10 µg/mL (≈ 76.8 µM); MIC (P. ochrochloron): 15 ± 3 µg/mL (≈ 38.4 µM); MFC [10]: 30 ± 10 µg/mL (≈ 76.8 µM); MIC [10]: 15 ± 3 µg/mL (≈ 38.4 µM); MFC [11]: 60 ± 6 µg/mL (≈ 154 µM); MIC [11]: 30 ± 10 µg/mL (≈ 76.8 µM); melting point: 265 to 266 °C |
| COC(=O)c1[nH]c2ccccc2c1/C=C1\SC(=S)N(c2cccc(O)c2)C1=O [Compound 3, (Z)-methyl 3-((3-(3-hydroxyphenyl)-4-oxo-2-thioxothiazolidin-5-ylidene)methyl)-1H-indole-2-carboxylate] | 30 ± 10 µg/mL (≈ 73.1 µM) | 15 µg/mL (≈ 36.5 µM) | 30 ± 10 µg/mL (≈ 73.1 µM) | 15 ± 9 µg/mL (≈ 36.5 µM) | 30 ± 10 µg/mL (≈ 73.1 µM) | 22 ± 5 µg/mL (≈ 53.6 µM) | 60 ± 6 µg/mL (≈ 146 µM) | 30 ± 10 µg/mL (≈ 73.1 µM) | 60 ± 6 µg/mL (≈ 146 µM) | 45 ± 3 µg/mL (≈ 110 µM) | 60 ± 6 µg/mL (≈ 146 µM) | 30 ± 10 µg/mL (≈ 73.1 µM) | 30 ± 10 µg/mL (≈ 73.1 µM) | 15 µg/mL (≈ 36.5 µM) | 30 ± 10 µg/mL (≈ 73.1 µM) | 15 µg/mL (≈ 36.5 µM) | 15 ± 3 µg/mL (≈ 36.5 µM) | 8 ± 0.6 µg/mL (≈ 19.5 µM) | 60 ± 6 µg/mL (≈ 146 µM) | 30 ± 10 µg/mL (≈ 73.1 µM) | MIC [1]: 15 ± 9 µg/mL (≈ 36.5 µM); MIC [5]: 15 ± 9 µg/mL (≈ 36.5 µM); MIC [6]: 15 ± 9 µg/mL (≈ 36.5 µM); MFC [9]: 15 ± 3 µg/mL (≈ 36.5 µM); MIC [9]: 8 ± 0.6 µg/mL (≈ 19.5 µM); MFC (P. ochrochloron): 15 ± 3 µg/mL (≈ 36.5 µM); MIC (P. ochrochloron): 8 ± 0.6 µg/mL (≈ 19.5 µM); MFC [10]: 15 ± 3 µg/mL (≈ 36.5 µM); MIC [10]: 8 ± 0.6 µg/mL (≈ 19.5 µM); MIC [12]: 4 ± 1 µg/mL (≈ 9.74 µM); MFC ([12]; Trichoderma viride, IAM5061): 8 ± 0.6 µg/mL (≈ 19.5 µM); MIC ([12]; Trichoderma viride, IAM5061, read-out: MIC): 4 µg/mL (≈ 9.74 µM); MFC [11]: 30 ± 10 µg/mL (≈ 73.1 µM); MIC [11]: 15 ± 3 µg/mL (≈ 36.5 µM); melting point: 245 to 247 °C |
